{"source": "patent US20070021412A1", "about": "“Treatment of gastrointestinal dysfunction and related stress with an enantiomerically-pure (S) 2,3-benzodiazepine” (Vela Pharmaceuticals, Inc., priority 2003, published 2007)", "key": {"[1]": {"test_system": "Colonic Propulsive Motility", "assay": "Glass Bead Test (stretch-stimulated colonic propulsion)", "assay_type": "in vivo, mouse", "conditions": "for Expulsion Time Mean ± SEM: 30 minutes before bead, cutoff 30 minutes, in min", "experimental": "In the test, usually performed in mice, a 3-mm glass bead is inserted through the anus into the distal colon (using a glass rod) to a depth of 2 cm. The time to expel the glass bead is then measured; normally, the glass bead is expelled in approximately 10 minutes. This model is especially sensitive to compounds with inhibitory effects on stretch-stimulated propulsive motor activity; as such, it is often used as an animal model for IBS. A test compound that inhibits stretch-stimulated-colonic propulsive motility may be used to treat gastrointestinal dysfunction, including IBS. Both enantiomerically-pure (R)- and (S)-tofisopam inhibited propulsive motility to a greater extent than the racemate.\nThe glass bead test is commmonly used to evaluate the ability of compounds to affect stimulated colonic propulsion. In the test, usually performed in mice, a 3-mm glass bead is inserted through the anus into the distal colon (using a glass rod) to a depth of 2 cm. The time to expel the glass bead is then measured; normally, the glass bead is expelled in approximately 10 minutes. This model is especially sensitive to compounds with inhibitory effects on stretch-stimulated propulsive motor activity; as such, it is often used as an animal model for IBS.\nIn each study, (RS)-, (R)- and (S)-tofisopam were evaluated for their ability to increase or decrease the time for expulsion of the glass bead. Test compounds were administered 30 minutes prior to insertion of the bead, and a maximum time cutoff of 30 minutes to expulsion was used."}, "[2]": {"test_system": "visceral hypersensitivity, pain, and bloating induced by colonic distension", "assay": "Visceral hypersensitivity, pain and bloating test (abdominal contractions after colonic distension and acetic acid)", "assay_type": "in vivo, rat", "conditions": "32 mg/kg p.o.", "experimental": "In yet another gastrointestinal disorder model, the visceral pain and bloating test, the ability of (R)- and (S)-tofisopam to inhibit abdominal contractions in the rat was investigated. (R)- and (S)-tofisopam were able to inhibit abdominal contractions to a greater extent than racemic tofisopam. The effects of (R)-tofisopam, (S)-tofisopam, and (RS)-tofisopam were evaluated for alleviating visceral hypersensitivity, pain, and bloating. […] Eur. J. Pharmacol. 324: 211-217 (1997); Langlois et al. Eur. J. Pharmacol. 318: 141-144 (1996)). The acetic acid makes the colon hypersensitive, modeling the visceral hypersensitivity seen in IBS. The colonic distension models the pain and bloating seen in IBS, and causes abdominal contractions in rats. In the control group 13.8±2.0 abdominal contractions were measured over the 10-minute period of observation."}, "[3]": {"test_system": "Gastrointestinal Propulsive Motility", "assay": "Charcoal Meal Test (basal gastrointestinal propulsion)", "assay_type": "in vivo, rat", "conditions": "for % Inhibition (gastrointestinal propulsive motility): numbers in parentheses indicate % increase", "experimental": "The charcoal meal test is a standard method for evaluating the effect of compounds on basal, nonstimulated propulsive motility of the stomach and small intestine. It is generally considered predictive of a compound's ability to inhibit or accelerate basal gastric propulsion in humans. In the test, usually performed in rats, nonactivated charcoal powder is administered by oral gavage. Sixty minutes after administration of the charcoal suspension, rats were sacrificed by CO2 inhalation, the stomach and small intestine were removed, and the distance between the pylorus and the furthest progression of the charcoal meal was measured and compared to the distance between the pylorus and the ileocecal junction. This model is especially sensitive to compounds with the ability to increase or decrease basal propulsive motor activity of the stomach and small intestine. It is therefore often used to predict the potential for compounds to exert antidiarrheal or anticonstipatory effects, as well as to predict the potential for compounds to produce diarrhea or constipation as a side-effect. Two charcoal meal test were performed in rats. In each study, (RS)-, (R)-and (S)-tofisopam were evaluated for their for their ability to increase or decrease the percent of the intestine traversed by a charcoal meal. Test compounds were administered 30 minutes prior to administration of the charcoal meal."}, "[4]": {"test_system": "stress-induced ulcer formation", "assay": "Water immersion stress-induced ulcers test", "assay_type": "in vivo, rat", "conditions": "for Ulceration Index: ulcer score × percentage of stomachs showing ulcers; for Score for the Presence of Ulcers Mean ± SEM: score 0-4, N = 8"}}, "data": [{"smiles": "CC[C@@H]1C(C)=NN=C(c2ccc(OC)c(OC)c2)c2cc(OC)c(OC)cc21", "note": "[(S)-tofisopam, (S)-1-(3,4-dimethoxyphenyl)-4-methyl-5-ethyl-7,8-dimethoxy-5H-2,3-benzodiazepine]", "values": [{"measurement": "% Inhibition (colonic expulsion)", "setting": "[1]; 32 mg/kg IP", "value": 100, "unit": "%"}, {"measurement": "Expulsion Time Mean ± SEM", "setting": "[1]; 32 mg/kg IP", "value": "30.0 ± 0.0"}, {"measurement": "% Inhibition (colonic expulsion)", "setting": "[1]; 64 mg/kg IP", "value": 100, "unit": "%"}, {"measurement": "Expulsion Time Mean ± SEM", "setting": "[1]; 64 mg/kg IP", "value": "30.0 ± 0.0"}, {"measurement": "number of abdominal cramps", "setting": "[2]; vehicle control 18.8±1.8 cramps", "value": "10.4±1.3", "unit": "cramps"}, {"measurement": "decrease of abdominal cramps", "setting": "[2]; versus vehicle control", "value": 45, "unit": "%"}, {"measurement": "% Intestine Traversed, Mean ± SEM", "setting": "[3]; first experiment, 64 mg/kg IP", "value": "75.7 ± 3.1", "unit": "%"}, {"measurement": "% Inhibition (gastrointestinal propulsive motility)", "setting": "[3]; first experiment, 64 mg/kg IP", "value": 7.1, "unit": "%"}, {"measurement": "% Intestine Traversed, Mean ± SEM", "setting": "[3]; second experiment, 4 mg/kg IP", "value": "79.1 ± 1.3", "unit": "%"}, {"measurement": "% Intestine Traversed, Mean ± SEM", "setting": "[3]; second experiment, 8 mg/kg IP", "value": "80.9 ± 1.9", "unit": "%"}, {"measurement": "% Intestine Traversed, Mean ± SEM", "setting": "[3]; second experiment, 16 mg/kg IP", "value": "73.3 ± 1.2", "unit": "%"}, {"measurement": "% Inhibition (gastrointestinal propulsive motility)", "setting": "[3]; second experiment, 16 mg/kg IP", "value": 1.9, "unit": "%"}, {"measurement": "% Intestine Traversed, Mean ± SEM", "setting": "[3]; second experiment, 32 mg/kg IP", "value": "60.8 ± 2.8", "unit": "%"}, {"measurement": "% Inhibition (gastrointestinal propulsive motility)", "setting": "[3]; second experiment, 32 mg/kg IP", "value": 19.7, "unit": "%"}, {"measurement": "Ulceration Index", "setting": "[4]; 16 mg/kg IP", "value": 313}, {"measurement": "% of Stomachs Showing Ulcers", "setting": "[4]; 32 mg/kg IP", "value": 38, "unit": "%"}, {"measurement": "Score for the Presence of Ulcers Mean ± SEM", "setting": "[4]; 32 mg/kg IP", "value": "1.1 ± 0.4"}, {"measurement": "Ulceration Index", "setting": "[4]; 32 mg/kg IP", "value": 42}, {"measurement": "% of Stomachs Showing Ulcers", "setting": "[4]; 64 mg/kg IP", "value": 38, "unit": "%"}, {"measurement": "Score for the Presence of Ulcers Mean ± SEM", "setting": "[4]; 64 mg/kg IP", "value": "1.3 ± 0.3"}, {"measurement": "Ulceration Index", "setting": "[4]; 64 mg/kg IP", "value": 47}]}]}
